Laboratory results taken from patent US9204649B2 (priority 2011, dated 2015).

Columns and labels:
[1] = log P (pH 2.7) given with the preparation examples; format: physicochemical; settings: for logP: pH 2.7, pH 2.7
Phytophthora infestans = format: in vivo; settings: tomato young plants, protective spray, active ingredient concentration 10 ppm, evaluation 3 days after inoculation; 0% = control, 100% = no infection

In the case of `CC(C)(C)OC(=O)N1CCC(c2nc(C=NO)cs2)CC1` [A, tert-Butyl 4-{4-[(hydroxyimino)methyl]-1,3-thiazol-2-yl}piperidine-1-carboxylate], the “log P (pH 2.7)” value ([1]; pH 2.7) is reported as 2.38 and the logP [1] is reported as 2.25.
For `CCOC(=O)C1CC(c2csc(C3CCN(C(=O)OC(C)(C)C)CC3)n2)=NO1` (stereo not drawn) [B, tert-Butyl 4-{4-[5-(ethoxycarbonyl)-4,5-dihydro-1,2-oxazol-3-yl]-1,3-thiazol-2-yl}piperidine-1-carboxylate], the logP [1] was 3.14.
Compound `O=C(O)C1CC(c2csc(C3CCN(C(=O)Cn4nc(C(F)F)cc4C(F)F)CC3)n2)=NO1` (stereo not drawn) [D, 3-[2-(1-{[3,5-Bis(difluoromethyl)-1H-pyrazol-1-yl]acetyl}piperidin-4-yl)-1,3-thiazol-4-yl]-4,5-dihydro-1,2-oxazole-5-carboxylic acid] has a logP [1] of 1.77.
For `COC(=O)C1CC(c2csc(C3CCN(C(=O)Cn4nc(C(F)F)cc4C(F)F)CC3)n2)=NO1` (stereo not drawn) [Example I-1, methyl 3-[2-(1-{[3,5-bis(difluoromethyl)-1H-pyrazol-1-yl]acetyl}piperidin-4-yl)-1,3-thiazol-4-yl]-4,5-dihydro-1,2-oxazole-5-carboxylate], the logP [1] was 2.26, the “Eff (efficacy)” value (Phytophthora infestans) was 75% and the chromatographic logP (physchem; pH 2.3) was 2.28. The chromatographic logP (physchem; pH 7.8) was 2.28.
In the case of `O=C(OC1CCCCC1Cl)C1CC(c2csc(C3CCN(C(=O)Cn4nc(C(F)F)cc4C(F)F)CC3)n2)=NO1` (stereo not drawn) [Example I-5, 2-Chlorocyclohexyl 3-[2-(1-{[3,5-bis(difluoromethyl)-1H-pyrazol-1-yl]acetyl}piperidin-4-yl)-1,3-thiazol-4-yl]-4,5-dihydro-1,2-oxazole-5-carboxylate], the logP ([1]; reversed-phase HPLC column (C18)) is reported as 3.43, the “Eff (efficacy)” value (Phytophthora infestans) is reported as 93% and the chromatographic logP (physchem; pH 2.3) is reported as 3.42. For the same compound, the chromatographic logP (physchem; pH 7.8) was 3.5.
